Laboratory results reported in patent publication US8785430B2, “Compound that can inhibit UBC13-UEV interactions, pharmaceutical compositions and therapeutic uses” (Consejo Superior de Investigaciones Cientificas, priority 2006, dated 2014).

Target: T1, UBC13-UEV1 interaction (Homo sapiens, UniProt P61088)
T1 construct: expressed in transfected cells; host or cells: Saccharomyces cerevisiae strain AH109
T1 sequence (P61088 1-152): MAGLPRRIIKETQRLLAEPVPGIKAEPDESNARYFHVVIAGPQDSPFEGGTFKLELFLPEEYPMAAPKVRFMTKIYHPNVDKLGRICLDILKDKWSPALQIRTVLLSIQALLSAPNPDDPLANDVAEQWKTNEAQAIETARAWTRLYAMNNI
Experiment: Two-hybrid assay in yeasts for the UBC13-UEV1 interaction (β-galactosidase)
Format: cell-based
Conditions: read-out: inhibition of the interaction between UBC13 and UEV1
From the text: The interaction between UBC13 and UEV1 is detected by means of two-hybrid assays in yeast. The protein forms of UBC13 and UEV1 used in the following examples are of Homo sapiens. The UBC13 protein, also referred to as UBE2N (HUGO nomenclature) has the following identifiers: NCBI-GI: 4507793, UniProt: P61088 and [EC:6.3.2.19]. The UEV1 protein, also referred to as UBE2V1 (HUGO nomenclature), has the following identifiers: NCBI-GI: 73765546 and UniProt: {tilde under (O)}13404. In this assay, UBC13 is expressed as a fusion protein with the Gal4 DNA-binding domain (DBD-UBC13) from the plasmid pBD-UBC13, and UEV1 is expressed as a fusion protein with the Gal4 transcriptional activation domain (AD-UEV1) from the plasmid pACT2-UEV1. Both plasmids are cotransfected in the Saccharomyces cerevisiae strain AH109, being grown on plates with […] without leucine or tryptophan, selecting only the colonies expressing […] for these two amino acids, i.e., those containing the two co-transfected plasmids. […]

SMILES	inhibition at 100 µM [%]
NC(=O)CN(CCc1ccccn1)C(=O)C1CC(=O)N(CCc2ccc(F)cc2)CC(=O)N1CCc1ccc(F)cc1 (centres unmarked) [Ia, N-aminocarbamoylmethyl-N-(2′-(2″pyridyl)ethyl)-1,4-bis[2′-(4″-fluorophenyl)ethyl]-3,7-dioxo-[1,4]diazepane-5-carboxamide]	~60
NC(=O)CN(CCc1ccccn1)C(=O)CC1C(=O)N(CCc2ccc(F)cc2)CC(=O)N1CCc1ccc(F)cc1 (centres unmarked) [Ib, 1,4-bis[2′-(4″-fluorophenyl)ethyl]-2-[N-aminocarbonylmethyl-N-(2′-(2″-pyridyl)ethyl)-carbonylmethyl]piperazine-3,6-dione]	~40
